Laboratory results reported in article PMC11311998, “AR71, Histamine H3 Receptor Ligand—In Vitro and In Vivo Evaluation (Anti-Inflammatory Activity, Metabolic Stability, Toxicity, and Analgesic Action)” (International Journal of Molecular Sciences, 2024).
Where “and” joins values, the source holds several entries; their conditions need not be identical. Equal entries are not always repeated.

Experiments:
[1] = molecular target: human H3R; set-up: method as in PMID 36370200; settings: cited from earlier work
[2] = molecular target: hH4R; set-up: method as in PMID 36370200; settings: cited from earlier work
[3] = system: human astrocytes; experiment: viability of human astrocytes (MTT assay); assay type: cell-based; settings: for IC50: Homo sapiens, Astrocyte
Description: We investigated the effect of AR71 in a wide range of concentrations (0.78–100 μM) on the viability of human astrocyte cell lines after 2, 24, 48, and 72 h of incubation (Figure 6). Prolonged incubation of human astrocytes with AR71 caused a dose-dependent decrease in cell viability.
The astrocyte cell line from the human cerebral cortex was purchased from ScienCell Research Laboratories (San Diego, CA, USA; Cat no. 1800) and maintained according to the protocol recommended by the company (the ScienCell Research Laboratories’ protocol).
The colorimetric MTT assay using 3-(4,5-dimethylthiazol-2-yl)-2,5-diphenyltetrazolium bromide (MTT; Sigma-Aldrich Chemical Co. Ltd., Saint Louis, MO, USA) was used for evaluation of astrocytes viability. The experiment was carried out following the procedure described in detail previously. Astrocytes were seeded onto 96-well plates at a final density of 10 × 10^3 cells/well. Following 24 h of culture, the cells were treated with AR71 (0.78–100 μM) for […], 24, 48, or 72 h. After the respective incubation periods, MTT solution was added to the cell culture for another four hours. Absorbance was measured at 570 nm using a BioTek EL 800× microplate reader (BioTek, Winooski, VT, USA), with the value directly proportional to the number of viable cells. Cell viability was calculated by the following formula: Viability [%] = (A/AC) × 100%, where A represents the absorbance of the investigated sample and AC represents the absorbance of the negative control (untreated cells). The positive control (vehicle) was 0.1% DMSO.

[4] = metabolic stability in human liver microsomes; assay type: in vitro ADME
Description: The metabolic stability of AR71 was assessed in vitro using human liver microsomes (HLMs). […] After 120 min of incubation with HLMs, 85% of AR71 remained unchanged. However, during this time, six metabolites were formed (Figure S4a–d, Supplementary Materials). The metabolite M1 was formed in the highest amount (5.5%). The others were formed in amounts of 0.6% to 1.2%. Based on an analysis of their molar masses, and with the help of MetaSite 6.0.1, a type of metabolic transformation was proposed. The identified in vitro AR71 metabolic pathways and the most probable site of metabolism predicted by MetaSite 6.0.1 are shown in Table 1.
Metabolic stability was assessed in human liver microsomes (HLMs, Sigma-Aldrich, St. Louis, MO, USA), as previously described. After 120 min of incubation with HLMs, liquid chromatography–mass spectrometry (Waters ACQUITY TQD system with the TQ Detector, Waters, Milford, MA, USA) was used to identify the formed metabolites. MetaSite 6.0.1 software (Molecular Discovery Ltd., Hertfordshire, U.K.) was used to predict the most probable sites of metabolism in silico.

[5] = molecular target: hH1R; set-up: method as in PMID 36370200; settings: cited from earlier work
[6] = system: BV-2 cells; experiment: cytokine/chemokine panel in LPS-stimulated microglia (Luminex); assay type: cell-based, mouse
Excerpt: In the research presented in this paper, we extended the study of the anti-inflammatory properties of AR71 by analysing the panel of cytokines/chemokines in mouse microglia with the Luminex® platform. We applied MILLIPLEX® Magnetic Bead Panel that consists of nine different analytes regarding inflammation. Some of the analytes were below the limit of quantification, and the reason for this is explained in the text.
BV-2 cells (the murine microglial cell line) were purchased from the Interlab Cell Line Collection (ICLC) cell bank (ICLC, Genova, Italy). The cells were cultured in DMEM medium (Gibco no. 61965-026, ThermoFisher Scientific, Waltham, MA, USA) containing 10% charcoal-stripped foetal bovine serum (CS-FBS, Biowest no. S181f, batch no. S00NP) in a humidified incubator containing 95% air and 5% CO2 at 37 °C. CS-FBS was used to study the effect of compounds on neuroinflammation in vitro without the confounding effects of some cytokines that are naturally present in serum. Experiments were carried out with BV-2 cells from passages 7 to 13.
The Luminex assay is a form of immunoassay that utilises magnetic microparticles and the same sandwiching techniques as ELISAs. To analyse the panel of cytokines/chemokines in mouse microglia, we used a MILLIPLEX® Magnetic Bead Panel (MCYTOMAG-70K, Millipore, Sigma-Aldrich, Darmstadt, Germany). The following analytes were studied: IFN-γ, IL-1β, IL-4, IL-6, IL-10, IL-12 (p40), IP-10, MIP-2, and TNF-α. The preparation of antibody-immobilised beads, quality controls, mouse cytokine standard, and immunoassay procedure, were performed according to the manufacturer’s protocol. All standards, quality controls, and samples were analysed in duplicate on the Luminex 200 multiplexing instrument (Luminex Corp, Austin, TX, USA). Sample analyte concentrations were determined using Belysa 1.1.0 curve-fitting software and the standard curve data from each run (Millipore, Sigma-Aldrich, Darmstadt, Germany). To perform multiplex cytokine analysis, BV-2 cells (150 × 10^3 cells/well/500 μL in 24-well plate) were pre-treated for 1 h with AR71, and then LPS (1 μg/mL) was added to induce inflammation. The cells were cultured for another 24 h. After this time, cell culture supernatants were collected, centrifuged to remove cell debris, and stored at −80 °C for analysis. To avoid multiple freeze/thaw cycles, the samples were aliquoted.

[7] = 1 h pre-treatment, LPS 1 μg/mL, 24 h

SMILES: COc1cc(/C=C/C(=O)c2ccc(OCCCN3CCCCC3)cc2)cc(OC)c1OC [AR71, (E)-3-(3,4,5-trimethoxyphenyl)-1-(4-(3-(piperidin-1-yl)propoxy)phenyl)prop-2-en-1-one]
- Ki [1]: 0.024 µM
- Ki [2]: 2.81 µM and > 2.5 µM
- effect on astrocyte viability at low concentrations ([3]; 1.56 and 3.12 μM, 48 h, did not persist after 72 h): statistically significant proliferation
- IC50 ([3]; 2 h incubation): 41.3 µM
- IC50 ([3]; 24 h incubation): 20.2 µM
- IC50 ([3]; 48 h incubation): 12.5 µM
- IC50 ([3]; 72 h incubation): 9.69 µM
- number of metabolites formed ([4]; 120 min incubation with HLMs): six
- parent compound remaining unchanged ([4]; 120 min incubation with HLMs): 85%
- parent compound remaining unchanged ([4]; 120 min incubation with HLMs, listed as AR-71): 85.40%
- metabolic stability ([4]; HLMs): rather metabolically stable
- Ki [5]: 2.7 µM and > 2.5 µM
- reduction of IL-1β vs level after LPS stimulation [6, 7]: 2.66 times lower
- reduction of IL-6 vs level after LPS stimulation [6, 7]: 5.94 times lower
- reduction of TNF-α vs level after LPS stimulation [6, 7]: 1.77 times lower
- effect on CXCL-10 (IP-10) ([6]; in the presence of LPS): repressed
- IL-4 level in the presence of LPS ([6]; with LPS): did not restore the level of IL-4 to the control point
- IL-4 level, compound alone ([6]; without LPS, vs unstimulated BV-2 cells): half the IL-4 content
